Where no end group is shown, it is not given here.
Tests used:
HLA-A*0201 = HLA-A*0201 (Homo sapiens, UniProt P04439, /I218V/L300P/L318F/N151K/N90K/P208A/P217A/Q86G/Q94H/R138H/R169H/T345S); experiment: ELISA-based MHC refolding assay; assay type: binding
Method: The amount of de novo-folded HLA/peptide complexes was determined by a quantitative ELISA. Dissociation constants (KD values) were calculated using a standard curve recorded from dilutions of a calibrant HLA/peptide complex.

CD8+ T cells [1] = experiment: In vitro priming of CD8+ T cells with pMHC/anti-CD28 coated beads, tetramer readout; assay type: cell-based, human; conditions: for Positive donors/donors tested / Positive wells/wells tested: healthy donors, CD8+ cells stimulated with high density beads
Method: To perform in vitro stimulations by artificial antigen presenting cells (aAPC) loaded with peptide-MHC complex (pMHC) and anti-CD28 antibody, first we isolated PBMCs (peripheral blood mononuclear cells) from fresh HLA-A*02+ buffy coats by using standard density gradient separation medium (PAA, Cölbe, Germany). Buffy coats were either obtained from the Blood Bank Tübingen or from the Katharinenhospital Stuttgart. Isolated PBMCs were incubated overnight in T-cell medium (TCM) for human in vitro priming consisting of RPMI-Glutamax (Invitrogen, Karlsruhe, Germany) supplemented with 10% heat inactivated human AB serum (PAA, Cölbe, Germany), 100 U/ml Penicillin/100 μg/ml Streptomycin (Cambrex, Verviers, Belgium), 1 mM sodium pyruvate (CC Pro, Neustadt, Germany) and 20 μg/ml Gentamycin (Cambrex). CD8+ lymphocytes were isolated using the CD8+ MACS positive selection kit (Miltenyi, Bergisch Gladbach, Germany) according to the manufacturer's instructions.
800.000 beads/200 μl were coated in 96-well plates in the presence of 600 ng biotin anti-CD28 plus 200 ng relevant biotin-pMHC (high density beads) or 2 ng relevant plus 200 ng irrelevant (pMHC library) MHC (low density beads). Stimulations were initiated in 96-well plates by co-incubating 1×10^6 CD8+ T cells with 2×10^5 washed coated beads in 200 μl TCM supplemented with 5 ng/ml IL-12 (PromoCell) for 3-4 days at 37° C. Half of the medium was then exchanged by fresh TCM supplemented with 80 U/ml IL-2 and incubating was continued for 3-4 days at 37° C. This stimulation cycle was performed for a total of three times.
Results shown have been obtained by stimulation of CD8+ cells with high density beads. As different human serum lots may highly affect the immunogenicity results, only assays in which one and the same serum lot was used, were evaluated together.

CD8+ T cells [2] = experiment: as above; assay type: cell-based, human; conditions: small number of glioblastoma patients
[3] = out of 18 patients treated, recurrent GBM, intermediate results; cited from earlier work
[4] = tested on: HLA-DR broad antigens (HLA-DR1 to DR7); experiment: ProImmune REVEAL MHC:peptide binding assay; set-up: species or system human; conditions: relative to pass/fail control; MET-005 tested as two overlapping 15-mers
Method: The ProImmune REVEAL™ technology employs in vitro HLA-DR assembly assays to determine the on-rates for the MHC:peptide complex as one major determinant of the binding constant of individual peptides. The assay was performed by ProImmune (Oxford, UK). At a fixed time point, the amount of intact MHC:peptide complexes is measured and compared with the amount for a pass/fail control (relative weak binder). A strong, promiscuous HLA-DR binder is included as positive control. Values indicate amount of binding for the individual peptides and HLA-DR molecules relative to the pass/fail control.
In this assay, binding was compared to that of a pass/fail control binder, and to a positive control peptide for each HLA-DR antigen.

anti-survivin T cells = experiment: Phase I/II vaccination study, T-cell response to Survivin peptide (IFN-g ELISPOT, +/-ICS); assay type: in vivo, human

| Compound | Positive donors/donors tested (CD8+ T cells [1]) [%] | Positive wells/wells tested (CD8+ T cells [1]) [%] | other results |
| --- | --- | --- | --- |
| CSCC[C@H](NC(=O)[C@@H](N)[C@@H](C)O)C(=O)N[C@@H](CC(C)C)C(=O)N[C@@H](C)C(=O)N[C@@H](CCCNC(=N)N)C(=O)N[C@@H](CC(C)C)C(=O)N[C@@H](C)C(=O)N[C@@H](CO)C(=O)N[C@@H](C)C(=O)O [CSP-001] | 100 | 57 | Kd (HLA-A*0201; recombinant HLA-A*0201 with b2m, quantitative ELISA, read-out: Dissociation constant (KD) to HLA-A*0201): 2.05 nM |
| AIIDGVESV (listed as Homo sapiens) [PTP-003] | 50 | 17 |  |
| ALWAWPSEL (listed as Homo sapiens) [BCA-002] | 75 | 35 | in vitro immunogenicity in glioblastoma patients (CD8+ T cells [2]): immunogenic to a similar extent compared with healthy donors; immunogenicity in comparison to another BCAN-derived peptide (IMA-BCA-001) (CD8+ T cells [1]): very immunogenic |
| AMG102: human neutralizing antibody against HGF |  |  | patients with minor response [3]: 1; patients with partial response [3]: 1 |
| AMTQLLAGV (listed as Homo sapiens) [TNC-001] | 60 | 30 |  |
| GLWHHQTEV (listed as Homo sapiens) [NRCAM-001] | 86 | 39 |  |
| KIQEILTQV (listed as Homo sapiens) [IGF2BP3-001] | 50 | 21 |  |
| KVFAGIPTV (listed as Homo sapiens) [PTP-005] | 100 | 52 |  |
| LTFGDVVAV (listed as Homo sapiens) [FABP7-001] | 100 | 27 |  |
| NLDTLMTYV (listed as Homo sapiens) [NLGN4X-001] | 100 | 62 | in vitro immunogenicity in glioblastoma patients (CD8+ T cells [2]): immunogenic to a similar extent compared with healthy donors |
| SLWAGVVVL (listed as Homo sapiens) [CHI-001] | 100 | 63 | in vitro immunogenicity in glioblastoma patients (CD8+ T cells [2]): immunogenic to a similar extent compared with healthy donors |
| TFSYVDPVITSISPKYG (listed as Homo sapiens) [MET-005, MET-derived elongated HLA class I TUMAP] |  |  | HLA-DR antigens for which in vitro binding was obtained [4]: HLA-DR11; HLA class I binding of the full-length elongated peptide (HLA-A*0201): does not possess HLA class I binding capacities |
| TLGEFLKLDRERAKN (listed as Homo sapiens) [BIR-002] |  |  | HLA-DR antigens for which in vitro binding was obtained [4]: HLA-DR1, 3, 4 and 11; patients with induction of an anti-survivin T-cell response upon vaccination (anti-survivin T cells; among the 16 reacting patients): 12; patients with pre existing anti-Survivin T cells (anti-survivin T cells; among the 16 reacting patients): 2; immunogenicity in clinical trial in prostate cancer patients with different HLA-DR alleles (anti-survivin T cells; in vivo): broad immunogenicity; patients who reacted to the peptide (IFN-g ELISPOT, +/-ICS) (anti-survivin T cells; of the 19 patients vaccinated, prostate carcinoma): 16 |
| YVDPVITSI [MET-001] | 67 | 39 |  |
